According to patent publication US8691789B2, “Probe of iodine-123 marker thymidine (FLT)analogue [123I]-IaraU” (Atomic Energy Council-Institute of Nuclear Research, priority 2012, dated 2014):
Entries after “also recorded” stand apart in the source; their conditions may differ.

How the values were obtained:
Assay type in all cases: cell-based
[1] = tested on: NG4TL4-wild type cells; assay: cellular uptake experiment of [^123I]-IaraU in NG4TL4-wild type cells
Protocol: (§1) Please refer to FIG. 3 which is a schematic view of experimental results of cell absorption of [^123I]-IaraU according to the invention. As shown, the present invention utilizes the above synthesized iodine-123 marker FLT analogue for in vitro experiments which totally use cells of NG4TL4-wild type, NG4TL4-HSVtk, NG4TL4-sr39tk. They are cultivated in the DMEM (Dulbecco's Modified Eagle's Medium) medium containing 10% fetal bovine serum at 37° C. and in the environment having 5% carbon dioxide. Then they are planted in 96-well plate at the proportion of 1×10^5 cells/well for 12 hours, and then subjected to biological experiments.
(§2) Before the cellular uptake experiment starts, 1 mCi of the above [^123I]-IaraU 8 or [^18F]-FLT (from INER) is thoroughly mixed with 50 ml of serum-free DMEM medium. The cultivated medium on the 96-well plate is drained out, and the aforementioned cultivated medium mixed with radioactive material is immediately added material with the ratio of 200 μl/well. The cells to which the cultivated medium has been added are placed back to an incubator of 5% CO2 at 37° C. […] Finally, a Gamma-Counter is used to measure the radioactivity of cytoplasm for each individual supernatant. The formula for analysis is as follows: (Radioactivity of cytoplasm/Activity as whole)×100%.

[2] = tested on: NG4TL4-HSVtk cells; assay: cellular uptake experiment of [^123I]-IaraU in NG4TL4-HSVtk cells
Protocol: as §1, §2

[3] = tested on: NG4TL4-sr39tk cells; assay: cellular uptake experiment of [^123I]-IaraU in NG4TL4-sr39tk cells
Protocol: as §1, §2

[4] = after five hours, % of the total amount
[5] = time points 0.25, 0.5, 1.5, 3 and 5 hours

O=c1[nH]c(=O)n([C@@H]2O[C@H](CO)C(O)C2O)cc1[123I] (stereo partly drawn) [[^123I]-IaraU, 1-(β-D-arabinofuranosyl)-5-[^123I]iodopyrimidin-2,4(3H)-dione]
maximum intake (radioactivity of cytoplasm/activity as whole ×100%) [1, 4]: not more than 10% | cellular uptake over time (in words) [1, 5]: no significant intake; also recorded: no significant increase in quantity | maximum intake (radioactivity of cytoplasm/activity as whole ×100%) [2, 4]: not more than 10% | cellular uptake over time (in words) [2, 5]: no significant intake; also recorded: no significant increase in quantity | maximum intake (radioactivity of cytoplasm/activity as whole ×100%) [3, 4]: not more than 10% | cellular uptake over time (in words) [3, 5]: no significant intake; also recorded: no significant increase in quantity
